From PubChem BioAssay AID1259407 (Chemical Carcinogenesis Research Information System (CCRIS), 2018)
Activity calls are given as the source filed them. How the calls were made is not given here.

System: CCRIS mutagenicity, Ames/micronucleus/aberration tests
Experiment: CCRIS mutagenicity studies
Conditions: Test System: AMES SALMONELLA TYPHIMURIUM
[1] = Strain/Indicator: TA100, Metabolic Activation: NONE, Method: STANDARD PLATE

C=C(C)C(=O)O
mutagenic call (Strain/Indicator: TA98, Metabolic Activation: HAMSTER, LIVER, S-9, AROCLOR 1254, Method: PREINCUBATION): inactive; negative
mutagenic call (Strain/Indicator: TA98, Metabolic Activation: NONE, Method: PREINCUBATION): inactive; negative
mutagenic call (Strain/Indicator: TA98, Metabolic Activation: RAT, LIVER, S-9, AROCLOR 1254, Method: PREINCUBATION): inactive; negative
mutagenic call (Strain/Indicator: TA100, Metabolic Activation: HAMSTER, LIVER, S-9, AROCLOR 1254, Method: PREINCUBATION): inactive; negative
mutagenic call (Strain/Indicator: TA100, Metabolic Activation: NONE, Method: PREINCUBATION): inactive; negative
mutagenic call (Strain/Indicator: TA100, Metabolic Activation: RAT, LIVER, S-9, AROCLOR 1254, Method: PREINCUBATION): inactive; negative
mutagenic call (Strain/Indicator: TA1535, Metabolic Activation: HAMSTER, LIVER, S-9, AROCLOR 1254, Method: PREINCUBATION): inactive; negative
mutagenic call (Strain/Indicator: TA1535, Metabolic Activation: NONE, Method: PREINCUBATION): inactive; negative
mutagenic call (Strain/Indicator: TA1535, Metabolic Activation: RAT, LIVER, S-9, AROCLOR 1254, Method: PREINCUBATION): inactive; negative
mutagenic call (Strain/Indicator: TA1537, Metabolic Activation: HAMSTER, LIVER, S-9, AROCLOR 1254, Method: PREINCUBATION): inactive; negative
mutagenic call (Strain/Indicator: TA1537, Metabolic Activation: NONE, Method: PREINCUBATION): inactive; negative
mutagenic call (Strain/Indicator: TA1537, Metabolic Activation: RAT, LIVER, S-9, AROCLOR 1254, Method: PREINCUBATION): inactive; negative

O=C1c2ccccc2-c2c1c1ccccc1c(=O)n2CCNCCO
mutagenic call (Strain/Indicator: TA97, Metabolic Activation: NONE, Method: STANDARD PLATE): inactive; negative
mutagenic call (Strain/Indicator: TA97, Metabolic Activation: RAT, LIVER, S-9, PHENOBARBITAL AND ALPHA-NAPHTHOFLAVONE, Method: STANDARD PLATE): inactive; negative
mutagenic call (Strain/Indicator: TA98, Metabolic Activation: NONE, Method: STANDARD PLATE): inactive; negative
mutagenic call (Strain/Indicator: TA98, Metabolic Activation: RAT, LIVER, S-9, PHENOBARBITAL AND ALPHA-NAPHTHOFLAVONE, Method: STANDARD PLATE): inactive; negative
mutagenic call [1]: inactive; negative
mutagenic call (Strain/Indicator: TA100, Metabolic Activation: RAT, LIVER, S-9, PHENOBARBITAL AND ALPHA-NAPHTHOFLAVONE, Method: STANDARD PLATE): inactive; negative
mutagenic call (Strain/Indicator: TA1535, Metabolic Activation: NONE, Method: STANDARD PLATE): inactive; negative
mutagenic call (Strain/Indicator: TA1535, Metabolic Activation: RAT, LIVER, S-9, PHENOBARBITAL AND ALPHA-NAPHTHOFLAVONE, Method: STANDARD PLATE): inactive; negative

CC(=O)ON(OCc1ccc(Br)cc1)C(=O)c1ccccc1
mutagenic call [1]: active; positive
mutagenic call (Strain/Indicator: TA100, Metabolic Activation: RAT, S-9, AROCLOR, Method: STANDARD PLATE): active; positive
